Results published in ChEMBL document CHEMBL3627645, “Synthesis and activities of new indolopyrrolobenzodiazepine derivatives toward acute myeloid leukemia cells” (Bioorg Med Chem, 2015).
The source made the active and inactive calls. The rule behind the calls is not given here.

Assays:
[1] = biological target: T1, Serine/threonine-protein kinase pim-3 (Homo sapiens, UniProt Q86V86); assay: Inhibition of human Pim-3 using RSRHSSYPAGT as substrate assessed as residual activity at 10 uM measured for 30 mins in presence of [gamma-33P]-ATP relative to control
[2] = biological target: T1, Serine/threonine-protein kinase pim-3; assay: Inhibition of human Pim-3 using RSRHSSYPAGT as substrate assessed as residual activity at 1 uM measured for 30 mins in presence of [gamma-33P]-ATP relative to control
[3] = biological target: T2, Serine/threonine-protein kinase pim-1 (Homo sapiens, UniProt P11309); assay: Inhibition of human Pim-1 using RSRHSSYPAGT as substrate assessed as residual activity at 10 uM measured for 30 mins in presence of [gamma-33P]-ATP relative to control
Target sequence in this assay (P11309 whole entry, looked up): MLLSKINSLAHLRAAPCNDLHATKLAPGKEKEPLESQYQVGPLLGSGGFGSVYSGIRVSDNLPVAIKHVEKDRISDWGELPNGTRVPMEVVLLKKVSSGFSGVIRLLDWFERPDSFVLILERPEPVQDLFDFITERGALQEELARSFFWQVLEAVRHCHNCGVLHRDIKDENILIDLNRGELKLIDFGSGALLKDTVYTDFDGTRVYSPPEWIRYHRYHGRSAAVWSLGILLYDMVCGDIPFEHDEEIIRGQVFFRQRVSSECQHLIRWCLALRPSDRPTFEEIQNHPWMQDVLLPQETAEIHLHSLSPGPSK

[4] = biological target: T2, Serine/threonine-protein kinase pim-1; assay: Inhibition of human Pim-1 using RSRHSSYPAGT as substrate assessed as residual activity at 1 uM measured for 30 mins in presence of [gamma-33P]-ATP relative to control
Target sequence in this assay (P11309 whole entry, looked up): as above

[5] = biological target: T1, Serine/threonine-protein kinase pim-3; assay: Inhibition of human Pim-3 using RSRHSSYPAGT as substrate measured for 30 mins in presence of [gamma-33P]-ATP
[6] = biological target: T2, Serine/threonine-protein kinase pim-1; assay: Inhibition of human Pim-1 using RSRHSSYPAGT as substrate measured for 30 mins in presence of [gamma-33P]-ATP
Target sequence in this assay (P11309 whole entry): as the sequence (P11309 whole entry, looked up) above

IPC81 [7] = assay: Induction of apoptosis in rat IPC81 cells assessed as chromatin condensation and fragmentation at 10 to 100 uM after 48 to 72 hrs by Hoechst 33342 staining-based visual and UV microscopic analysis; format: functional, cell-based
IPC81 [8] = assay: Induction of apoptosis in rat IPC81 cells overexpressing Bcl-2 assessed as chromatin condensation and fragmentation at 10 to 100 uM after 48 hrs by Hoechst 33342 staining-based visual and UV microscopic analysis; format: functional, cell-based
NRK = assay: Induction of apoptosis in NRK cells assessed as chromatin condensation and fragmentation at 10 to 100 uM after 48 hrs by Hoechst 33342 staining-based UV-vis microscopic analysis; format: cell-based; details: rat
IPC81 [9] = assay: Induction of apoptosis in rat IPC81 cells assessed as chromatin condensation and fragmentation at 100 uM after 72 hrs by Hoechst 33342 staining-based visual and UV microscopic analysis; format: functional, cell-based
[10] = biological target: T1, Serine/threonine-protein kinase pim-3; assay: Inhibition of Pim-3 (unknown origin)
[11] = biological target: T2, Serine/threonine-protein kinase pim-1; assay: Inhibition of Pim-1 (unknown origin)
Target sequence in this assay (P11309 whole entry): as the sequence (P11309 whole entry, looked up) above

Row | Activity [1] [%] | Activity [2] [%] | Activity [3] [%] | Activity [4] [%] | IC50 [5] [nM] | IC50 [6] [nM] | IC50 [10] [nM] | IC50 [11] [nM] | SMILES | Activity (IPC81 [7]) | Activity (IPC81 [8]) | Activity (NRK) | Activity (IPC81 [9])
1 | 80 | 65 | 102 | 78 |  |  |  |  | Cc1ccc(S(=O)(=O)OCCOC2Cn3cc(C=O)c4ccc5c6ccccc6n(c5c43)C2)cc1 (centres undefined) |  |  |  | 
2 | 8.1 | 25 | 6.6 | 24 | 600 | 1560 |  |  | CS(=O)(=O)OC1Cn2cc(C=O)c3ccc4c5ccccc5n(c4c32)C1 (centres undefined) |  |  |  | 
3 | 3.5 | 13.3 | 5 | 38 | 380 | 1400 |  |  | O=Cc1cn2c3c1ccc1c4ccccc4n(c13)CC(O)C2 (centres undefined) |  |  |  | 
4 | 11 | 40 | 19 | 54 | 340 | 740 |  |  | O=Cc1cn2c3c1ccc1c4ccccc4n(c13)CC(OCCCBr)C2 (centres undefined) | inactive | inactive | Non-toxic | 
5 | 16.4 | 48 | 17.8 | 84 |  |  |  |  | O=Cc1cn2c3c1ccc1c4ccccc4n(c13)CC(OCCN1CCCC1)C2 (centres undefined) |  |  |  | 
6 | 28 | 59 | 35 | 78 |  |  |  |  | CCN(CC)CCOC1Cn2cc(C=O)c3ccc4c5ccccc5n(c4c32)C1 (centres undefined) |  |  |  | 
7 | 5 | 10.3 | 1.9 | 9.5 | 190 | 390 |  |  | N#CCOC1Cn2cc(C=O)c3ccc4c5ccccc5n(c4c32)C1 (centres undefined) | inactive | inactive | Toxic | 
8 | 24 | 70 | 28 | 75 |  |  |  |  | O=Cc1cn2c3c1ccc1c4ccccc4n(c13)CC(OCCCN1CCOCC1)C2 (centres undefined) |  |  |  | 
9 | 24 | 60.8 | 29 | 71.6 |  |  |  |  | CCN(CC)CCCOC1Cn2cc(C=O)c3ccc4c5ccccc5n(c4c32)C1 (centres undefined) |  |  |  | 
10 | 28 | 60 | 35 | 94 |  |  |  |  | CN1CCN(CCOC2Cn3cc(C=O)c4ccc5c6ccccc6n(c5c43)C2)CC1 (centres undefined) |  |  |  | 
11 | 16 | 49.6 | 21 | 54.9 |  |  |  |  | O=Cc1cn2c3c1ccc1c4ccccc4n(c13)CC(OCCCO)C2 (centres undefined) |  |  |  | 
12 | 20 | 45 | 31 | 66 |  |  |  |  | O=Cc1cn2c3c1ccc1c4ccccc4n(c13)CC(OCCCN1CCCCC1)C2 (centres undefined) | Active | Active | Non-toxic | Active
13 | 34 | 55 | 32 | 52 |  |  |  |  | Cc1ccc(S(=O)(=O)NC2Cn3cc(C=O)c4ccc5c6ccccc6n(c5c43)C2)cc1 (centres undefined) |  |  |  | 
14 |  |  |  |  |  |  | 50 | 42 | O=Cc1cn2c3c1ccc1c4ccccc4n(c13)CCC2 |  |  |  | 
15 | 18.3 | 54 | 24.1 | 58 |  |  |  |  | O=Cc1cn2c3c1ccc1c4ccccc4n(c13)CC(OCCCN1CCCC1)C2 (centres undefined) |  |  |  | 
16 | 26 | 51 | 22.4 | 58.2 |  |  |  |  | CN1CCN(CCCOC2Cn3cc(C=O)c4ccc5c6ccccc6n(c5c43)C2)CC1 (centres undefined) |  |  |  | 
17 | 10.8 | 30 | 9 | 44 | 700 | 1100 |  |  | O=Cc1cn2c3c1ccc1c4ccccc4n(c13)CC(OCCO)C2 (centres undefined) | Active | inactive | Toxic | Active
18 | 35 | 65.8 | 34 | 57 |  |  |  |  | O=Cc1cn2c3c1ccc1c4ccccc4n(c13)CC(OCCN1CCOCC1)C2 (centres undefined) |  |  |  | 
19 | 22.2 | 54 | 30 | 82 |  |  |  |  | O=Cc1cn2c3c1ccc1c4ccccc4n(c13)CC(OCCN1CCCCC1)C2 (centres undefined) |  |  |  | 
20 | 79 | 70.8 | 94 | 81 |  |  |  |  | Cc1ccc(S(=O)(=O)OCCCOC2Cn3cc(C=O)c4ccc5c6ccccc6n(c5c43)C2)cc1 (centres undefined) |  |  |  | 
21 |  |  |  |  |  |  | 26 | 9 | O=Cc1cn2c3c1ccc1c4ccccc4n(c13)CCCCC2 |  |  |  | 
